The values below come from article PMC7700685 (International Journal of Molecular Sciences, 2020).

Where “and” joins values, the source holds several entries; their conditions need not be identical. Equal values may be shown once. Entries after “also recorded” stand apart in the source; their conditions may differ. Read-outs that look alike come from different tables or passages of the source. A value given as a limit tells only on which side of the number the result lay.

The subject of one data set is U251MG cells. Put plainly: MTT cell viability assay. As to conditions: 72 h. In general terms: Tetrazolium dyes change colour on reduction, which living cells bring about.
The target in data set [1] is T1, MTH1 (Homo sapiens, UniProt P36639). In words: MTH1 enzymatic inhibition assay (PPiLight inorganic pyrophosphate bioluminescent assay). Format: biochemical. As to conditions: substrate dGTP 100 uM, recombinant MTH1 0.5 nM; for IC50: read-out: IC50 inhibiting MTH1 hydrolase activity. The protocol:
(§1) The enzymatic hydrolysis of dGTP by purified human recombinant MTH1 to form dGMP and pyrophosphate was applied for screening purposes using a PPiLightTM inorganic pyrophosphate bioluminescent assay—according to published procedures. After shaking and color development, the plates were analyzed in a Victor 3 Microplate reader (PerkinElmer, Waltham, MA, USA) for luminescence. The inhibition assays were conducted using a series of dilutions of standard compounds and new MTH1 inhibitors. The IC50 values were determined by fitting a dose-response curve to the data points using nonlinear regression.

The target of data set [2] is T1, MTH1. In words: Competitive binding against [3H]TH287 in live U251MG cells. More on the design: endogenous in cells; host or cells: U251MG glioblastoma cells. The method, then: The final concentration of the radioligand in each assay was 4 nM. […] After the reaction was completed, the cells were washed once with ice-cold PBS and the bound radioactivity was counted and analyzed as described above. Nonspecific binding was determined from cells treated with 10 µM TH086. Raclopride, a well-reported selective antagonist for dopamine D₂ receptors, was also used to validate the assay.
The values for Bns and B0 were constrained using experimentally derived values.
Data from competitive radioligand binding studies were transformed to determine the pseudo-Hill coefficient, n’H, defined as:(4) logBs/B0−Bs=n′HlogI−n′HlogIC50
n’H, which is the negative of the Hill slope, was readily determined from the plot of logBs/B0−Bs versus logI .

For data set [3] the following is noted: human; N-dealkylation of the aminomethyl substituent, major metabolite TH586; no reference given; cited from earlier work.
The nature of another data set: in vitro. Conditions: human.
Another data set relates to beta-tubulin. As to conditions: cited from earlier work.
The conditions of data set [4]: mouse; N-dealkylation of the aminomethyl substituent, major metabolite TH586; no reference given; cited from earlier work.
The nature of data set [5]: MicroPET imaging of normal mice with [11C]TH287. Format: in vivo. The method, then:
The Washington University Animal Studies Committee approved all procedures used for the mouse experiments described in the present study under ACS# 20,170,165 (approved on 9/1/2017). Overall care of the animals was consistent with The Guide for the Care and Use of Laboratory Animals from the National Research Council and the USDA Animal Care Resource Guide. Four male athymic nude mice ([…], 8 weeks old), purchased from Charles River Laboratories (Wilmington, MA, USA), were included for the preliminary microPET imaging evaluation of MTH1 in vivo. […] The imaging sessions were 1 h dynamic scans using the MicroPET® Focus 220 and Inveon scanners (Siemens Medical Solutions USA Molecular Imaging, Knoxville, TN, USA). Acquired list mode data were histogrammed into a 3D set of sinograms and binned to the following time frames: 5 × 60 s, 5 × 2 min, and 9 × 5 min. Sinogram data was then processed using a filter back-projection algorithm with attenuation and scatter corrections. […] The software Acquisition Sinogram Image PROcessing using IDL’s Virtual Machine^TM (ASIPro VM^TM) (Siemens Medical Solutions USA Molecular Imaging, Knoxville, TN, USA) was used to draw ROI and obtain the radioactivity uptake (nCi/c.c.) curve over the time course of the scan, and the uptake data were further normalized by the injected radioactivity dose to get %I.D./cc.

The target in data set [6] is T1, MTH1. Put plainly: Competitive inhibition (kinetics) assay of MTH1 hydrolase. It is filed as biochemical. The method, then: as §1
In data set [7] the target is T1, MTH1. As to conditions: 'it has been reported', no reference given; cited from earlier work.

Method for in vitro: MTT assays were used to test cell toxicity of compounds. […] After incubation with MTT for 4 h at 37 °C, the culture medium was aspirated and 200 µL DMSO was added to each well to dissolve the formazan crystals, then the absorbance was measured at 540 nm using a Victor 3 Microplate reader (PerkinElmer, Waltham, MA, USA).

As to `C[C@H](Oc1cc(-c2cnn(C3CCNCC3)c2)cnc1N)c1c(Cl)ccc(F)c1Cl` [(S)-crizotinib], the “cell viability compared with vehicle control” value in the data set with U251MG cells (10 µM) worked out at 92.95%; in the data set with U251MG cells (30 µM), 0.14%.

One may read the IC50 as the concentration needed to halve the response being measured. Broadly, the Ki is a measure of affinity in units of concentration, obtained from inhibition or displacement. With `CCN1CCC[C@H]1CNC(=O)c1c(O)c(Cl)cc(Cl)c1OC` [Raclopride], at MTH1 [1], the “IC50 inhibiting MTH1 hydrolase activity” value is given as “no inhibition” and the half-inhibitory concentration (IC50) was over 10000 nM. Also, the “Ki (competitive binding)” value on MTH1 [2] (U251MG cells, 4 nM [3H]TH287, Cheng-Prusoff) is listed as “No binding was detected”. In addition, the Ki on MTH1 [2] (read-out: Ki (competitive binding)) was over 10000 nM.

As usually defined, the viability is a per cent measure of how many cells are alive, often set against a control. Consider `CNc1cc(-c2cccc(Cl)c2Cl)nc(N)n1` [TH287, 6-(2,3-Dichlorophenyl)-N4-methylpyrimidine-2,4-diamine], for which the “metabolism in liver microsomes” value in data set [3] and in data set [4] was “rapidly metabolized” throughout. At MTH1 [1], the IC50 worked out at 2.2 nM. In “in vitro”, this compound registered a viability at 72 h, 30 µM of 88.9%. For the same compound, in the data set with beta-tubulin, the “concentration inhibiting in vitro beta-tubulin polymerization” value is “higher than 30 µM”. Moreover, the blood-brain barrier penetration result in [5] (microPET) is on record as “penetrates the blood-brain barrier of mice with a fast clearance”. Moreover, on MTH1 [6] (2.5 nM TH287 present (Km 305 µM without)), the “Kmapp of MTH1” value stood at 892 µM. Further, the Ki was ~1.3 nM and 1.3 nM on MTH1 [6] (MTH1 0.5 nM, dGTP 0 to 5000 uM, read-out: Ki from kinetics assays); 3.04 ± 0.14 nM at MTH1 [2]. The “pseudo-Hill coefficient n'H” value on MTH1 [2] (U251MG cells) was 0.88 and 0.88 ± 0.06.

Consider `Nc1cc(-c2cccc(Cl)c2Cl)nc(N)n1` [TH586], for which, at MTH1 [7], the IC50 is 77 nM.

Consider `Nc1nc(NC2CC2)cc(-c2cccc(Cl)c2Cl)n1` [TH588], for which the “concentration inhibiting in vitro beta-tubulin polymerization” value in the data set on beta-tubulin is given as “higher than 30 µM”.

On to `[11CH3]Nc1cc(-c2cccc(Cl)c2Cl)nc(N)n1` [[^11C]TH287], for which the “uptake and clearance from brain, heart and kidney” value in data set [5] (~0.4 mCi via tail vein, 1 h dynamic scan) was “gets into the brain with rapid clearance from the brain, kidney, and heart; also recorded: high initial uptake and fast clearance; also recorded: rapid brain uptake and fast clearance”.
